{"source": "the NIST ThermoML archive (doi:10.1016/j.fluid.2014.01.041)", "note": "Numbers after ± are expanded uncertainties."}
{"conditions": "Crystal; DTA", "units": {"Normal melting temperature": "°C"}}
{"smiles": "NC(=O)CN1CCCC1=O", "note": "[2-oxo-1-pyrrolidineacetamide]", "Normal melting temperature": "125 ± 0.4"}
{"smiles": "CC(=O)CCCCn1c(=O)c2c(ncn2C)n(C)c1=O", "note": "[3,7-dimethyl-1-(5-oxohexyl)-3,7-dihydro-1H-purine-2,6-dione]", "Normal melting temperature": "106 ± 0.4"}
{"smiles": "C(=C\\c1ccccc1)/CN1CCN(C(c2ccccc2)c2ccccc2)CC1", "note": "[cinnarizine]", "Normal melting temperature": "122.0 ± 0.4"}
